Assay [1] relates to HER2 overexpressed gastric cancer cell line NCI-N87. Briefly: Cytotoxic activity (in vitro), CellTiter-Glo viable cell count. The class given is cell-based. Conditions: Homo sapiens, NCI-N87, 72 h, NCI-N87, cultured for 72 hours. On the procedure:
The cytotoxic activity of a compound of the present invention was investigated using a HER2 overexpressed gastric cancer cell line NCI-N87. Specifically, an appropriate amount of cells was seeded into a 96-well plate for cell culture at 50 μL/well, and precultured overnight at 37° C. under 5% —CO2 condition. A solution of a test compound in DMSO with dilution series was diluted with medium, and added to the precultured cells at the volume of 50 μL/well. The mixture was prepared such that the final concentration of DMSO became 0.1%. After the mixture was cultured for 72 hours at 37° C. under 5% —CO2 condition, 100 μL/well of CellTiter-Glo solution (Promega, Madison, Wis.) was added, the luminescence was measured using a luminometer (Wallac ARVO™ SX) 10 minutes later, and the viable cell count was determined.
(Cellular ATP, detected with luciferase, serves as a proxy for viable cell number.)

Assay [2] concerns HER2 overexpressed gastric cancer cell line. Briefly: In vivo anti-tumor effect, subcutaneous tumor transplant in nude mouse. Particulars: oral, daily except Saturday and Sunday, 2 to 4 weeks, read-out: Tumor growth inhibition ratio (%); for inhibition in vivo at 60 mg/kg: dosage 60 mg/kg. On the procedure:
The anti-tumor effect in vivo of a compound of the present invention was evaluated using a HER2 overexpressed gastric cancer cell line. Specifically, a tumor fragment with about 5 mm square was transplanted subcutaneously using a transplantation needle, or an appropriate number of tumor cells was suspended in saline (Otsuka Pharmaceutical Co., Ltd.) and transplanted under the skin of the right axillary region of a nude mouse using a glass syringe equipped with a two-stage needle for subcutaneous injection. After the confirmation of the engraftment of the transplanted tumors, the mice were classified into groups depending on the tumor volume. The test compounds: the Example Compounds 1-1, 1-2, 1-5, 1-8, 1-13, 1-14, 1-15, 1-19, 1-20, 1-22, 2-1, 2-3, and 3-2 were each dissolved or suspended in an appropriate medium and orally administered forcedly to a mouse. The period of administration was varied from 2 weeks to 4 weeks depending on tumor, and the administration was carried out daily with drug holidays of Saturday and Sunday. The major axis (mm) and the minor axis (mm) of a tumor were measured sequentially using an electronic digital vernier caliper, and evaluated by the tumor growth inhibition ratio (GI %) on the judgement day (in principle, the next day of the final administration) using the following calculating formula.
A: Average tumor volume on the judgement day of the group to which a compound was administered (*)
B: Average tumor volume on the judgement day of the untreated control group (*)
*: The tumor volume is calculated by ½×[major axis of tumor]×[minor axis of tumor]^2.

For assay [3], the target named is T1, purified human recombinant HER2 kinase (Lys676-Val1255, GST fusion) (Homo sapiens, UniProt P04626).
T1 construct: human recombinant HER2 kinase (Lys676-Val1255, GST fusion); GST
Nature of the assay: HER2 kinase enzyme inhibitory activity (HTRF). It counts as biochemical. Particulars: 200 μM ATP, FLT3 analogous peptide substrate, 60 minutes at room temperature. On the procedure:
The HER2 kinase enzyme inhibitory activity of a compound of the present invention was evaluated by using a purified human recombinant HER2 kinase (Lys676-Val1255, GST fusion) and a synthetic peptide as a substrate, and detecting the phosphorylation level of the substrate by the HTRF method (homogeneous time resolved fluorescence method). Specifically, 25 ng/well of activated HER2, 200 μM of ATP, 200 ng/well of FLT3 analogous peptide (biotin label, peptide sequence is AGGSSDNEYFYVDF), and test compound (final concentration 0.01 nM to 30 μM) were mixed in kinase reaction buffer (60 mM HEPES, 5 mM MgCl2, 5 mM MnCl2, 3 mM Na3VO4, 1.25 mM DTT, pH 7.5) to prepare 50 μL/well of total reaction volume, and the mixture was reacted for 60 minutes at room temperature. Then, the phosphorylation reaction was stopped and HTRF reaction was carried out by adding 25 μL/well of PBS solution comprising the following components and reacting the mixture for 12 to 16 hours at 4° C. The following components were dissolved in PBS (pH 7.0) to prepare the PBS solution composition: 60 mM EDTA (final concentration 20 mM), 1.2 M KF (final concentration […]), 1 mg/mL BSA (final concentration 333 μg/mL), 6 μg/mL anti-PY20-Cryptate (Cisbio international, France, final concentration 2 μg/mL), and 15 μg/mL Streptavidin labeled with XL665 (Cisbio international, France, final concentration 5 μg/mL).
For orientation: Time-resolved FRET reads energy transfer from a long-lived donor to a nearby acceptor.

In US20120149902A1, “PYRROLO[2,3-D]PYRIMIDINE DERIVATIVE” (UBE INDUSTRIES, LTD., priority 2009, published 2012) one finds GI50, inhibition in vivo and IC50 data, which are given here for three molecules.

Some results are limits rather than exact numbers.

T1 sequence (P04626 676-1255): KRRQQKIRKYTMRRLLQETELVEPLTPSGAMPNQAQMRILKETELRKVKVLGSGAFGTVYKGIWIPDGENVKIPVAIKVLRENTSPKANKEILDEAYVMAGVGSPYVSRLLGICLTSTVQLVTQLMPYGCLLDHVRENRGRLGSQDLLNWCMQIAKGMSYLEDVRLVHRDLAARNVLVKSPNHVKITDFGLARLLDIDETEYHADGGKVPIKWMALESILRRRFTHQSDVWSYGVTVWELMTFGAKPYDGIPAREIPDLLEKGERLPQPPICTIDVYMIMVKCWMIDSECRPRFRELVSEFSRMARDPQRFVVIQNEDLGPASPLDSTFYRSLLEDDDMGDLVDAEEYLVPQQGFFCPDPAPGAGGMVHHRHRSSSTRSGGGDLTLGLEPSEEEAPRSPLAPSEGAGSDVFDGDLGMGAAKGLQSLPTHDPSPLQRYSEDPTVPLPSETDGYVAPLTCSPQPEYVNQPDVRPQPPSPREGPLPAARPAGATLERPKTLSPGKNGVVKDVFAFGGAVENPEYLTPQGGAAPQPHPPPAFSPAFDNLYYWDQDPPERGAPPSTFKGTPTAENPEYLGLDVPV

One may read the GI50 as the concentration giving 50% growth inhibition. A low value points to more potent growth inhibition. A word on the IC50: it is the concentration needed to halve the response being measured. Consider `CC1(N)CCN(Cc2c[nH]c3ncnc(Nc4ccc5occc5c4)c23)CC1` [Example 1-15, [5-(4-Amino-4-methylpiperidin-1-ylmethyl)-7H-pyrrolo[2,3-d]pyrimidin-4-yl](benzofuran-5-yl)amine], for which the GI50 in assay [1] was 20 to 50 nM. Further, the inhibition in vivo at 60 mg/kg in assay [2] is 90%. Also, in assay [3], the IC50 is 10 to 50 nM.

As to `COc1ccc(Nc2ncnc3[nH]cc(CN4CCC(N)CC4)c23)cc1` [Example 1-19, [5-(4-Aminopiperidin-1-ylmethyl)-7H-pyrrolo[2,3-d]pyrimidin-4-yl](4-methoxyphenyl)amine], the GI50 in assay [1] lay in the range of 50 to 500 nM. For the same molecule, the inhibition in vivo at 100 mg/kg in assay [2] (dosage 100 mg/kg) is 44%. In assay [3], the IC50 is not below 100 nM.

In assay [1], `C#CCNC1CCN(Cc2c[nH]c3ncnc(Nc4cccc(C#C)c4)c23)CC1` [Example 3-2, (3-Ethynylphenyl) [5-(4-prop-2-ynylaminopiperidin-1-ylmethyl)-7H-pyrrolo[2,3-d]pyrimidin-4-yl]amine] displayed a GI50 of less than 20 nM. Further, the inhibition in vivo at 60 mg/kg in assay [2] stood at 91%. In addition, the IC50 in assay [3] was less than 10 nM.
